Measurements published in ChEMBL document CHEMBL1201862, “PubChem BioAssay data set” (2004).
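The compound was tested at five concentrations on cells cultured in 96-well plates, with a 48-hour exposure period. The concentration for 50% growth inhibition is given as GI50.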 The source made the active and inactive calls. No stated cut-off is given here; in the data, active = GI50 up to about 1.1 µM and inactive = higher.

How the values were obtained:
Experiment in all cases: NCI tumour cell line growth inhibition, 48 h
HOP-92 = tested on: HOP-92
DU-145 = tested on: DU-145
NCI-H522 = tested on: NCI-H522
UO-31 = tested on: UO-31
HCT-15 = tested on: HCT-15
HT-29 = tested on: HT-29
MDA-MB-231 = tested on: MDA-MB-231
SF-539 = tested on: SF-539
HCT-116 = tested on: HCT-116
HL-60 = tested on: HL-60
SW-620 = tested on: SW-620
SR = tested on: SR
COLO 205 = tested on: COLO 205
A498 = tested on: A498
MCF7 = tested on: MCF7
IGROV-1 = tested on: IGROV-1
OVCAR-4 = tested on: OVCAR-4
OVCAR-8 = tested on: OVCAR-8
NCI-H460 = tested on: NCI-H460
HCC 2998 = tested on: HCC 2998

SMILES	GI50 (HOP-92)	GI50 (DU-145)	GI50 (NCI-H522)	GI50 (UO-31)	GI50 (HCT-15) [µM]	GI50 (HT-29)	GI50 (MDA-MB-231)	GI50 (SF-539)	GI50 (HCT-116)	GI50 (HL-60)	GI50 (SW-620)	GI50 (SR)	GI50 (COLO 205)	GI50 (A498)	GI50 (MCF7)	GI50 (IGROV-1)	GI50 (OVCAR-4)	GI50 (OVCAR-8)	GI50 (NCI-H460)	GI50 (HCC 2998)
Clc1ccccc1NN(Cc1ccncc1)c1ccccc1Cl	4.6 µM (inactive)	17.5 µM (inactive)	12.1 µM (inactive)	24.5 µM (inactive)	16.3	12.6 µM (inactive)	13.6 µM (inactive)	18.2 µM (inactive)	13 µM (inactive)	17 µM (inactive)	16.9 µM (inactive)	13.2 µM (inactive)	14.4 µM (inactive)	19.1 µM (inactive)	22.3 µM (inactive)	14.6 µM (inactive)	11.1 µM (inactive)	13.8 µM (inactive)		
Cc1ccc(S(=O)(=O)Oc2ccc(OS(=O)(=O)c3ccc(C)cc3)c3c2C(=O)c2ccccc2C3=O)cc1	> 100 µM (inactive)	> 100 µM (inactive)	> 100 µM (inactive)	33.8 µM (inactive)	> 100	> 100 µM (inactive)	66.7 µM (inactive)	33 µM (inactive)	> 100 µM (inactive)	> 100 µM (inactive)	> 100 µM (inactive)	> 100 µM (inactive)	> 100 µM (inactive)		> 100 µM (inactive)	> 100 µM (inactive)	> 100 µM (inactive)	> 100 µM (inactive)	> 100 µM (inactive)	> 100 µM (inactive)
c1ccc(-c2nc3ccccc3n3nnnc23)cc1	> 100 µM (inactive)	> 100 µM (inactive)		0.424 µM (active)	> 100	> 100 µM (inactive)	> 100 µM (inactive)	> 100 µM (inactive)	> 100 µM (inactive)	> 100 µM (inactive)	> 100 µM (inactive)	> 100 µM (inactive)	> 100 µM (inactive)	> 100 µM (inactive)	> 100 µM (inactive)	> 100 µM (inactive)	> 100 µM (inactive)		> 100 µM (inactive)	> 100 µM (inactive)
Sc1nnc(-c2ccccc2Nc2ccccc2-c2nnc(S)n2-c2ccccc2)n1-c1ccccc1	17.8 µM (inactive)	56.6 µM (inactive)	26.7 µM (inactive)	44.6 µM (inactive)	34.3	35.5 µM (inactive)	22.7 µM (inactive)	28.8 µM (inactive)	63.1 µM (inactive)	22.8 µM (inactive)	26.9 µM (inactive)	37 µM (inactive)	34.8 µM (inactive)		37.2 µM (inactive)	16.4 µM (inactive)	40.4 µM (inactive)	72.6 µM (inactive)	37.1 µM (inactive)	36.6 µM (inactive)
O=C(O)c1ccc(Nc2nc3ccccc3nc2C(=O)O)cc1	> 100 µM (inactive)	> 100 µM (inactive)	> 100 µM (inactive)	> 100 µM (inactive)		> 100 µM (inactive)	> 100 µM (inactive)	> 100 µM (inactive)	> 100 µM (inactive)	> 10 µM (inactive)		> 100 µM (inactive)	> 100 µM (inactive)		> 100 µM (inactive)	> 100 µM (inactive)	> 100 µM (inactive)	> 100 µM (inactive)	> 100 µM (inactive)	> 100 µM (inactive)
COc1cc(/C=C/c2ccnc3ccccc23)cc(OC)c1OC		4.84 µM (inactive)	2.13 µM (inactive)	0.132 µM (active)	2.56	1.28 µM (inactive)	2.21 µM (inactive)	3.78 µM (inactive)	1.82 µM (inactive)	0.416 µM (active)	4.93 µM (inactive)	1.35 µM (inactive)	1.88 µM (inactive)	4 µM (inactive)	5.22 µM (inactive)	3.66 µM (inactive)	1.81 µM (inactive)		3.77 µM (inactive)	8.47 µM (inactive)
CC/C(C)=C1\OC(=O)C(C)C(O)C(Cc2cccnc2)NC(=O)C(NC(=O)c2ncccc2O)C(C)OC1=O (stereo not given)		> 100 µM (inactive)			49.5	42.2 µM (inactive)	> 100 µM (inactive)	> 100 µM (inactive)	82.2 µM (inactive)	62.8 µM (inactive)	> 100 µM (inactive)	> 100 µM (inactive)	> 100 µM (inactive)	> 100 µM (inactive)	> 100 µM (inactive)	27.1 µM (inactive)	> 100 µM (inactive)	63.8 µM (inactive)	63.1 µM (inactive)	> 100 µM (inactive)
O=[N+]([O-])c1ccc(O)c(/C=N/c2nc(-c3ccccc3)cs2)c1	22.9 µM (inactive)	30.4 µM (inactive)	19.2 µM (inactive)	26.4 µM (inactive)	29.1	34.2 µM (inactive)	33.3 µM (inactive)		26.7 µM (inactive)	34.2 µM (inactive)	37.6 µM (inactive)	3.03 µM (inactive)	19.6 µM (inactive)	> 93.5 µM (inactive)	26.8 µM (inactive)	24.2 µM (inactive)	58.3 µM (inactive)	25.9 µM (inactive)	38.1 µM (inactive)	24.8 µM (inactive)
